Experimental data reported in patent publication US5449814A, “Lignan analogues, methods of preparation thereof and anti-hyperlipemic agents” (Shionogi & Co., Ltd., priority 1991, dated 1995).
Read-outs that look alike come from different tables or passages of the source.

Legend:
LDL = assay: Inhibitory effect on oxidative modification of LDL (copper-induced, TBA reactive substances); type: biochemical, New Zealand albino rabbits; conditions: rabbit LDL 0.2 mg protein/ml, 0.5 μM Cu^2+, 37° C., 24 hours; read-out: Inhibition of LDL oxidation IC50
Method: Inhibitory effect on oxidative modification of LDL
According to the method by Kita et al. (Proc. Natl. Acad. Sci., U.S.A, Vol. 84, 5928 (1987)), the experiment was proceeded as follows.
LDL was isolated from the blood of New Zealand albino rabbits fed with a diet containing 0.5% cholesterol for 3 weeks, and dissolved in phosphate-buffered physiological saline (final LDL concentration: 0.2 mg protein/ml). To this solution, each test compound in ethanol was added and then copper sulfate (final Cu^2+ concentration: 0.5 μM) was added thereto. The mixture was incubated at 37° C. for 24 hours.
After incubation, the content of lipid peroxides in each solution was determined as thiobarbituric acid reactive substances (TBA reactive substances). Concentration for 50% inhibition (IC50) was obtained from a linear regression curve of concentration of a compound versus % inhibition of oxidative modification of LDL. To quantify TBA reactive substances, proteins were removed from the solution after incubation, and the supernatant was examined for the content of TBA reactive substances by TBA method.

cholesterol in serum = assay: Hypocholesterolemic effect in cholesterol-fed mice; type: in vivo, Male ICR mice; conditions: Mus musculus, po, 168 h, diet 1% cholesterol and 0.5% sodium cholate with 0.12% test compound, 7 days
Method: Hypocholesterolemic effect
Male ICR mice weighing 30 to 40 g were allowed to access to a diet containing 1% cholesterol and 0.5% sodium cholate supplemented with 0.12% of a test compound (no test compound in control group) ad libitum for 7 days. Then, the blood was taken and total cholesterol in serum was determined by the method of Allain (Clin. Chem., Vol. 20, 470 (1974)).
Total amount of VLDL cholesterol and LDL cholesterol was obtained by subtracting HLD cholesterol from total cholesterol. HLD cholesterol was quantified by the method of Ash and Hentschel et al. (Clin. Chem., Vol. 24, 2180 (1978)).
Hypocholesterolemic effect of a test compound was evaluated based on % reduction in cholesterol calculated using the equation shown below.

[1] = serum, read-out: Total Chol. reduction (%)
[2] = total minus HDL cholesterol, read-out: (VLDL + LDL) Chol. reduction (%)

SMILES | IC50 (LDL) [nM] | inhibition in vivo at 0.12 % in diet (cholesterol in serum; [1]) [%] | inhibition in vivo at 0.12 % in diet (cholesterol in serum; [2]) [%]
CCC(CC)CC(=O)c1c(C(=O)OC)c(-c2ccc(OC)c(F)c2)c2c(OC)c(OC)c(OC)cc2c1O [Example 61, 3-(3-Ethyl-1-oxopentyl)-1-(3-fluoro-4-methoxyphenyl)-4-hydroxy-2-methoxycarbonyl-6,7,8-trimethoxynaphthalene] | 4950 | 11 | 43
COc1ccc(-c2c(C)c(C(=O)c3ccc(C(F)(F)F)cc3)c(O)c3cc(OC)c(OC)c(OC)c23)cc1OC [Example 62, 1-(3,4-dimethoxyphenyl)-4-hydroxy-2-methyl-3-[4-(trifluoromethyl)benzoyl]-6,7,8-trimethoxynaphthalene] | 8980 | 27 | 59
COc1ccc(-c2c(C(F)(F)F)c(C(=O)c3ccc(C(F)(F)F)cc3)c(O)c3cc(OC)c(OC)c(OC)c23)cc1OC [Example 63, 1-(3,4-dimethoxyphenyl)-4-hydroxy-2-(trifluoromethyl)-3-[4-(trifluoromethyl)benzoyl]-6,7,8-trimethoxynaphthalene] | 2320 | 20 | 53
CCC(CC)C(=O)c1c(C(F)(F)F)c(-c2ccc(OC)c(OC)c2)c2c(OC)c(OC)c(OC)cc2c1O [Example 66, 1-(3,4-Dimethoxyphenyl)-3-(2-ethyl-1-oxobutyl)-4-hydroxy-2-(trifluoromethyl)-6,7,8-trimethoxynaphthalene] | 1470 | 9 | 36
CCC(=O)c1c(C(=O)OC)c(-c2ccc(OC)c(OC)c2)c2c(OC)c(OC)c(OC)c(C)c2c1O [Example 72, 1-(3,4-dimethoxyphenyl)-3-(1-oxopropyl)-4-hydroxy-2-methoxycarbonyl-5-methyl-6,7,8-trimethoxynaphthalene] | 590 | 20 | 64
CCC(=O)c1c(C(=O)OC)c(-c2ccc(OC)c(OC)c2)c2c(OC)c(OC)c(OC)c(OC)c2c1O [Example 73, 1-(3,4-dimethoxyphenyl)-3-(1-oxopropyl)-4-hydroxy-2-methoxycarbonyl-5,6,7,8-tetramethoxynaphthalene] | 2920 | 13 | 60
CCC(=O)c1c(C(=O)OC)c(-c2ccc(OC)c(OC)c2)c2c(OC)c(OC)c(OC)c(COC)c2c1O [Example 74, 1-(3,4-dimethoxyphenyl)-3-(1-oxopropyl)-4-hydroxy-2-methoxycarbonyl-5-methoxymethyl-6,7,8-trimethoxynaphthalene] | 6560 | 6 | 41

Now from value to compound, other results behind:

IC50 (LDL) [nM] | SMILES | inhibition in vivo at 0.12 % in diet (cholesterol in serum; [1]) [%] | inhibition in vivo at 0.12 % in diet (cholesterol in serum; [2]) [%]
7100 | CCC(CC)C(=O)c1c(C)c(-c2ccc(OC)c(OC)c2)c2c(OC)c(OC)c(OC)cc2c1O [Example 64, 1-(3,4-dimethoxyphenyl)-3-(2-ethyl-1-oxobutyl)-4-hydroxy-2-methyl-6,7,8-trimethoxynaphthalene] | 2 | 39
2790 | CCC(CC)CC(=O)c1c(C(=O)OC)c(-c2ccc(OC)c(OC)c2)c2c(OC)c(OC)c(OC)c(OC)c2c1O [Example 69, 1-(3,4-dimethoxyphenyl)-3-(3-ethyl-1-oxopentyl)-4-hydroxy-2-methoxycarbonyl-5,6,7,8-tetramethoxynaphthalene] | 10 | 16
5960 | CCC(CC)CC(=O)c1c(C(=O)OC)c(-c2ccc(OC)c(OC)c2)c2c(OC)c(OC)c(OC)c(CO)c2c1O [Example 71, 1-(3,4-dimethoxyphenyl)-3-(3-ethyl-1-oxopentyl)-4-hydroxy-5-hydroxymethyl-2-methoxycarbonyl-6,7,8-trimethoxynaphthalene] | 16 | 44
540 | COC(=O)c1c(C(=O)C(C)C)c(O)c2c(C)c(OC)c(OC)c(OC)c2c1-c1ccc(OC)c(OC)c1 [Example 76, 1-(3,4-dimethoxyphenyl)-3-(2-methyl-1-oxo-propyl)-4-hydroxy-2-methoxycarbonyl-5-methyl-6,7,8-trimethoxynaphthalene] | 15 | 43
2550 | COC(=O)c1c(C(=O)C(C)C)c(O)c2c(OC)c(OC)c(OC)c(OC)c2c1-c1ccc(OC)c(OC)c1 [Example 77, 1-(3,4-dimethoxyphenyl)-3-(2-methyl-1-oxopropyl)-4-hydroxy-2-methoxycarbonyl-5,6,7,8-tetramethoxynaphthalene] | 18 | 53
620 | COC(=O)c1c(C(=O)c2ccccc2)c(O)c2c(C)c(OC)c(OC)c(OC)c2c1-c1ccc(OC)c(OC)c1 [Example 78, 3-benzoyl-1-(3,4-dimethoxyphenyl)-4-hydroxy-2-methoxycarbonyl-5-methyl-6,7,8-trimethoxynaphthalene] | 14 | 42
